According to US20060013822A1, “Utilization of mhc class II binding motifs in immunization to produce immune, serum, monoclonal antibodies and vaccines” (priority 2002, published 2006):
“Also recorded” adds a separate entry of the source.

Assays:
[1] = tested on: Lymph node T cells from TR3 peptide 1-13 immune animals; assay: Standard T cell proliferation assay (3H-thymidine incorporation); assay type: cell-based, Lewis rat; details: T cells from TR3 peptide 1-13 immune Lewis rats with antigen presenting cells; after 48 hours in culture, 18 hour period
Experimental: Lymph node T cells from TR3 peptide 1-13 immune animals were cultured in the presence of antigen presenting cells and either TR3 peptide 1-13 or TR3 peptide 14-32. ^3H-thymidine incorporation was assessed after 48 hours in culture for an 18 hour period. The T cells responded in this standard T cell proliferation assay to TR3 peptide 1-13 but not to TR3 peptide 14-32. […] This implies that the missing component is a B cell epitope.
(§1) Two peptides were synthesized, TR3 peptide 1-13 and TR3 peptide 1-32. Both contain the binding motif but only one was long enough to have a portion hanging outside of the MHC Class II binding cleft. Lewis rats were immunized with one or the other of these peptides and sera tested for the presence of antibodies that would recognize the TR31-32 peptide before and after immunization.

C57B1/6J mice = assay: Antibody response in sera of immunized C57B1/6J mice, fluorescence ELISA for anti-TR3 binding antibodies; assay type: in vivo, mouse; details: immune sera collected after four weeks
Experimental: C57B1/6J mice were immunized with the native TR3 peptide 1-32 or with an altered TR3 sequence that contains a Threonine (T) to Phenylalanine (F) alteration at amino acid position 4 to introduce a known C57B1/6J MHC Class II binding motif. Immune sera were collected after four weeks and assessed for anti-TR3 binding antibodies by fluorescence ELISA.
(§2) The serum from rats immunized with TR3 peptide 1-32 were tested in a standard ELISA for epitope specificity. The protocol for ELISA has been described previously in (Tittle, Molecular Immunology 26:343-350, 1989), except that the substrate (methylumbelliferyl phosphate, MUP, Sigma-Aldrich, St. Louis, Mo.) was read fluorometrically rather than calorimetrically as with NPP (Nitrophenyl phosphate).
A T to F change in the sequence of TR3 at AA4 an H-2^b binding motif was generated and C57B1/6J mice were immunized with the native TR3 peptide or with the T-F variant peptide.

Lewis rats = assay: Antibody response in sera of immunized Lewis rats, fluorescence ELISA on TR3 peptide coated plates; assay type: in vivo, Lewis rat; details: bled after six weeks; for antibody titer against TR3 peptide 1-32 in sera of rats immunized with the peptide: TR31-32 coated plates, before and after immunization
Experimental: Rats were immunized and rested for four weeks. Immune sera were assayed at 1:5000 and compared to pre-immune titers by fluorescence ELISA (see below) using TR3 peptide 1-32 coated plates.
Lewis rats were immunized with TR3 peptide 1-13 and after six weeks the animals were bled and sera tested for binding to TR31-13 or TR31-32 coated plates using fluorescence ELISA.
as §1, §2

Substance | T cell proliferative response to the peptide in culture (3H-thymidine incorporation) [1] | detectable anti-TR3 binding antibodies in immune sera of mice immunized with the peptide (C57B1/6J mice) | detectable anti-TR3 binding antibodies in immune sera of mice immunized with the peptide (C57B1/6J mice; listed as T-F variant peptide) | antibody titer against TR3 peptide 1-13 in sera of rats immunized with the peptide (Lewis rats; TR31-13 coated plates) | antibody titer against TR3 peptide 1-32 in sera of rats immunized with the peptide (Lewis rats) | antibody titer against TR3 peptide 1-32 in sera of rats immunized with the peptide (Lewis rats; listed as TR3 peptide)
TR3 peptide 14-32: amino acids 14-32 of the TR-3 peptide, extended peptide shown to be the B cell epitope (ALLLVLLGARAQGGTRSPR) | not | – | – | – | – | –
QGGFRSPRCDCAGDFHKKIGLFCCRGCPAGHY (Altered TR3 peptide with MHC class II binding motif from amino acids 4 through 12.; listed as Homo sapiens) | – | made an anti-TR3 response | immunogenic and induced an antibody response | – | – | –
QGGTRSPRCDCAG (MEQRPRGCAAVAA) [TR3 peptide 1-13] | very strong T cell responses; also recorded: good T-cell response | – | – | No detectable antibody | No detectable antibody | no appreciable antibody titer
